In patent publication US20190192613A1, “COMPOSITION FOR PREVENTING OR TREATING HYPEROXIA-INDUCED LUNG INJURY COMPRISING WKYMVM PEPTIDE AS AN ACTIVE INGREDIENT” (SAMSUNG LIFE PUBLIC WELFARE FOUNDATION, priority 2017, published 2019):

Key:
[1] = tested on: bronchopulmonary dysplasia in neonatal mice; settings: Martin et al. 2014; cited from earlier work
[2] = Animal death during the hyperoxia experiment; assay type: in vivo, mouse; settings: neonatal mice, i.p. every day P5 to P8, entire experiment
Description: Pregnant C57/BL6 wild-type mice (National Experimental Animal Center, Pocheon, Korea) were raised in individual cages by offering a free access to water and food to each mouse, the mice spontaneously gave birth to babies, and then the offsprings were grown in a chamber under hyperoxia (80% O2) conditions (P) or normal oxygen (21% O2) conditions by day 14. At this time, environmental humidity and temperature were maintained at 50% and 24° C., and to investigate the effect of activated FPR2, WKYMVm (SEQ ID NO: 1) or physiological saline (vehicle, 20 μl) was intraperitoneally administered to each mouse every day from P5 to P8. In this case, death of the animals was not observed throughout the entire experimental processes.

| Compound | alveolar damage caused by bronchopulmonary dysplasia [1] | death of the animals [2] |
| --- | --- | --- |
| CCCCC[C@H](O)/C=C/C=C\C=C\C=C\[C@@H](O)[C@@H](O)CCCC(=O)O [lipoxin A4] | improve alveolar damage |  |
| CSCC[C@H](NC(=O)[C@H](Cc1ccc(O)cc1)NC(=O)[C@H](CCCCN)NC(=O)[C@@H](N)Cc1c[nH]c2ccccc12)C(=O)N[C@H](C(=O)N[C@H](CCSC)C(=O)O)C(C)C [WKYMVm, Trp-Lys-Tyr-Met-Val-D-Met] |  | not observed |
| CC/C=C\C[C@H](O)/C=C/C=C\C=C\C=C\[C@@H](O)[C@@H](O)C/C=C\CCC(=O)O [resolvin D1] | improve alveolar damage |  |
